Experimental data published in US11974969B2, “Artificially synthesized sphingosine derivative lipoid monomer and use of same for delivering nucleic acid” (INSTITUTE OF BASIC MEDICAL SCIENCES CHINESE ACADEMY OF …, priority 2018, dated 2024).

Test system: HEK293T cells
Assay: Flow cytometry (CFlow): delivery of FAM-labeled single-stranded PGY-sRNA-6 into HEK293T cells by different concentrations of single sphingosine derivative (Example 1)
Assay type: cell-based, human
Details: for delivery of single-stranded PGY-sRNA-6 into 293T cells (fluorescence shift compared to free uptake group): different concentrations: 3.75, 12.5, 37.5 μg single lipid, 0.1 nmol FAM-labeled sRNA, final 100 nM, 9 hours, flow cytometry; for Lipid delivery group (different concentrations of lipids) 3.75 μg/mL: single sphingosine derivative 3.75 μg/mL; for Lipid delivery group (different concentrations of lipids) 3.75 μg/mL / Lipid delivery group (different concentrations of lipids) 12.5 μg/mL / Lipid delivery group (different concentrations of lipids) 37.5 μg/mL: FAM-labeled PGY-ssRNA-6 100 nM, 293T cells, fluorescence shift by flow cytometry; for Lipid delivery group (different concentrations of lipids) 12.5 μg/mL: single sphingosine derivative 12.5 μg/mL; for Lipid delivery group (different concentrations of lipids) 37.5 μg/mL: single sphingosine derivative 37.5 μg/mL
Experimental: 2.1 5 μl of small RNA (Ribobio, 20 μM, as shown in Table 2) and 95 μL of DEPC (Sigma) treated water were added into a 1.5 ml EP tube and mixed well. Then a certain amount of single lipid or lipid composition in chloroform solution (as shown in Table 1) was added and fully mixed by sucking and blowing;
2.2 The system was fully mixed and was heated in a water bath at 90° C. for 15 minutes;
2.3 The system was taken out and cooled down to room temperature.
4.3 The human embryonic kidney cell line HEK293T and human monocyte THP-1 cells used in the experiment were cultured to logarithmic growth phase, and then plated into 12-well plates with a cell density of 6×10^5/1 mL medium/well. The 12-well plate (1 mL medium/well) was incubated overnight (12 h) at 37° C., followed by subsequent experiments.
4.4 The experiment groups were as follows: • 1) Naïve group: untreated cells. This group served as a blank control group. • 2) Free uptake group: […] of 5′-FAM labeled small RNA solution (storage concentration is 20 μM) was directly added. This group served as a negative control group; • 3) Lipid nucleic acid mixture treatment group: The mixture of the lipid prepared in step 2 and the 5′-FAM-labeled small RNA was added into the cells and mixed well. The final concentration of small RNA is 100 nM.
4.5 After co-incubation with cells for 6 h/9 h, the cells were washed three times with PBS. The cells were re-suspended with PBS (self-prepared). The flow cytometer Accuri® C6 instrument (purchased from BD, US) was used to detect the fluorescence intensity of the cells in the sample wells. Implementation method: the software CFlow Plus used in the flow cytometer Accuri® C6 instrument detection was opened, the instrument was washed with cleaning solution for 3 minutes, and then washed with double-distilled water for 5 minutes. The injection of blank group samples was started while setting the number of cells unlimited. The injection of Naïve group samples was stopped when the number of cells detected was 10000 events. The live cell group in the fluorescence spectrum (abscissa: FSC-A, ordinate: SSC-A) was circled as gate P1. With the number of cells set as limited, the detection was stopped when the number of cells in gate P1 reached 10000 events. The fluorescence shift value was obtained in the fluorescence spectrum (abscissa: fluorescence channel FLA-1, ordinate: SSC-A).
1) Conditions of the boiling method: to 100 μL FAM-labeled single-stranded PGY-sRNA-6 solution was added corresponding amount of lipid solution, and heated at 90° C. for 15 min;
2) Experimental conditions: the final concentration of small RNA was 100 nM. 9 hours after being added to the cells, the amount of single-stranded PGY-sRNA-6 that entered into the cells was compared by detecting the fluorescence shift using flow cytometry technology. For the detailed protocols, see “Flow cytometry technology (CFlow) determined the uptake amount of nucleic acid that is delivered into cells by lipid”. All experiments were performed in triplicates.

## CCCCCCCCCCCCC/C=C/[C@@H](O)[C@@H](N)COP(=O)(O)O [So-5, Sphingosine-1-Phosphoric Acid]
  delivery of single-stranded PGY-sRNA-6 into 293T cells (fluorescence shift compared to free uptake group): deliver
  Lipid delivery group (different concentrations of lipids) 3.75 μg/mL: 2.80%
  Lipid delivery group (different concentrations of lipids) 12.5 μg/mL: 1.60%
  Lipid delivery group (different concentrations of lipids) 37.5 μg/mL: 2.40%

## CC(C)CCCCCCCCCCC[C@@H](O)[C@@H](N)CO [So-75, 1,3-Hexadecanediol, 2-amino-15-methyl-, D-erythro-]
  delivery of single-stranded PGY-sRNA-6 into 293T cells (fluorescence shift compared to free uptake group): deliver
  Lipid delivery group (different concentrations of lipids) 3.75 μg/mL: 3.00%
  Lipid delivery group (different concentrations of lipids) 12.5 μg/mL: 4.20%
  Lipid delivery group (different concentrations of lipids) 37.5 μg/mL: 11.40%

## CCCCCCCCCCCCCC[C@@H](O)[C@@H](O)[C@@H](N)CO [So-63, 2S-amino-1,3S,4R-octadecanetriol]
  delivery of single-stranded PGY-sRNA-6 into 293T cells (fluorescence shift compared to free uptake group): deliver
  Lipid delivery group (different concentrations of lipids) 3.75 μg/mL: 5.60%
  Lipid delivery group (different concentrations of lipids) 12.5 μg/mL: 7.70%
  Lipid delivery group (different concentrations of lipids) 37.5 μg/mL: 6.50%

## CCCCCCCCCCCCCCCCC(=O)N[C@@H](CO)[C@H](O)CCCCCCCCCCCCCCC [So-1, N-heptadecanoyl-D-erythro-Dihydrosphingosine]
  delivery of single-stranded PGY-sRNA-6 into 293T cells (fluorescence shift compared to free uptake group): deliver
  Lipid delivery group (different concentrations of lipids) 3.75 μg/mL: 1.60%
  Lipid delivery group (different concentrations of lipids) 12.5 μg/mL: 1.50%
  Lipid delivery group (different concentrations of lipids) 37.5 μg/mL: 1.40%

## CCCCCCCCCCCCC/C=C/[C@@H](O)[C@@H](N)CO[C@@H]1O[C@H](CO)[C@@H](O)[C@H](O)[C@H]1O [So-49, 1-β-D-Glucosylsphingosine (synthetic)]
  delivery of single-stranded PGY-sRNA-6 into 293T cells (fluorescence shift compared to free uptake group): deliver
  Lipid delivery group (different concentrations of lipids) 3.75 μg/mL: 0.50%
  Lipid delivery group (different concentrations of lipids) 12.5 μg/mL: 1.70%
  Lipid delivery group (different concentrations of lipids) 37.5 μg/mL: 7.40%

## CCCCCCCCCCCCC/C=C/[C@@H](O)[C@H](CO)NC(=O)CCCCCCCCCCC [So-13, N-Lauroyl-D-erythro-Sphingosine]
  delivery of single-stranded PGY-sRNA-6 into 293T cells (fluorescence shift compared to free uptake group): deliver
  Lipid delivery group (different concentrations of lipids) 3.75 μg/mL: 3.40%
  Lipid delivery group (different concentrations of lipids) 12.5 μg/mL: 3.20%
  Lipid delivery group (different concentrations of lipids) 37.5 μg/mL: 5.20%

## CCCCCCCCCCCCCCCC(=O)N[C@@H](CO)[C@H](O)CCCCCCCCCCCCCCC [So-10, N-hexadecanoyl-D-erythro-Dihydrosphingosine]
  delivery of single-stranded PGY-sRNA-6 into 293T cells (fluorescence shift compared to free uptake group): deliver
  Lipid delivery group (different concentrations of lipids) 3.75 μg/mL: 2.10%
  Lipid delivery group (different concentrations of lipids) 12.5 μg/mL: 3.40%
  Lipid delivery group (different concentrations of lipids) 37.5 μg/mL: 2.50%

## CCCCCCCCCCCCC/C=C/[C@@H](O)[C@H](CO)NC(=O)CCCCCCCCCCCCCCCCCC [So-65, N-[(1S,2R,3E)-2-hydroxy-1-(hydroxymethyl)-3-heptadecen-1-yl]-nonadecanamide]
  delivery of single-stranded PGY-sRNA-6 into 293T cells (fluorescence shift compared to free uptake group): deliver
  Lipid delivery group (different concentrations of lipids) 3.75 μg/mL: 7.60%
  Lipid delivery group (different concentrations of lipids) 12.5 μg/mL: 7.50%
  Lipid delivery group (different concentrations of lipids) 37.5 μg/mL: 6.80%

## CCCCCCCCCCCCC/C=C/[C@@H](O)[C@H](CO)N(C)C [So-4, N,N-Dimethylsphingosine (d18:1)]
  delivery of single-stranded PGY-sRNA-6 into 293T cells (fluorescence shift compared to free uptake group): deliver
  Lipid delivery group (different concentrations of lipids) 3.75 μg/mL: 1.70%
  Lipid delivery group (different concentrations of lipids) 12.5 μg/mL: 2.20%
  Lipid delivery group (different concentrations of lipids) 37.5 μg/mL: 0.00%

## CCCCCCCCCCCCCCC[C@H](O)[C@H](N)CO [So-46, C18 L-erythro Sphinganine (d18:0)]
  delivery of single-stranded PGY-sRNA-6 into 293T cells (fluorescence shift compared to free uptake group): deliver
  Lipid delivery group (different concentrations of lipids) 3.75 μg/mL: 0.20%
  Lipid delivery group (different concentrations of lipids) 12.5 μg/mL: 0.30%
  Lipid delivery group (different concentrations of lipids) 37.5 μg/mL: 6.90%

## [2H]C([2H])([2H])C([2H])([2H])C([2H])([2H])C([2H])([2H])CCCCCCCCC/C=C/[C@@H](O)[C@@H](N)CO [So-74, (2S,3R,E)-aminooctadec-4-ene-15,15,16,16,17,17,18,18,18-d9-1,3-diol]
  delivery of single-stranded PGY-sRNA-6 into 293T cells (fluorescence shift compared to free uptake group): deliver
  Lipid delivery group (different concentrations of lipids) 3.75 μg/mL: 4.00%
  Lipid delivery group (different concentrations of lipids) 12.5 μg/mL: 3.10%
  Lipid delivery group (different concentrations of lipids) 37.5 μg/mL: 6.60%

## CCCCCCCCCCCCCC[C@@H](O)[C@@H](O)[C@H](CO)NC(=O)CCCCC [So-67, N-[(1S,2S,3R)-2,3-dihydroxy-1-(hydroxymethyl)heptadecyl]-hexanamide]
  delivery of single-stranded PGY-sRNA-6 into 293T cells (fluorescence shift compared to free uptake group): deliver
  Lipid delivery group (different concentrations of lipids) 3.75 μg/mL: 6.30%
  Lipid delivery group (different concentrations of lipids) 12.5 μg/mL: 5.30%
  Lipid delivery group (different concentrations of lipids) 37.5 μg/mL: 2.80%

## CCCCCCCCCCCCC/C=C/[C@@H](O)[C@H](CO)NC(=O)CCCCCCCCCCC [So-62, N-[(1S,2R,3E)-2-hydroxy-1-(hydroxymethyl)-3-heptadecen-1-yl]-dodecanamide]
  delivery of single-stranded PGY-sRNA-6 into 293T cells (fluorescence shift compared to free uptake group): deliver
  Lipid delivery group (different concentrations of lipids) 3.75 μg/mL: 6.60%
  Lipid delivery group (different concentrations of lipids) 12.5 μg/mL: 6.50%
  Lipid delivery group (different concentrations of lipids) 37.5 μg/mL: 7.10%

## CCCCCCCCCC/C=C/[C@@H](O)[C@@H](N)CO [So-73, 2S-amino-4E-pentadecene-1,3R-diol]
  delivery of single-stranded PGY-sRNA-6 into 293T cells (fluorescence shift compared to free uptake group): deliver
  Lipid delivery group (different concentrations of lipids) 3.75 μg/mL: 3.20%
  Lipid delivery group (different concentrations of lipids) 12.5 μg/mL: 4.60%
  Lipid delivery group (different concentrations of lipids) 37.5 μg/mL: 9.50%

## CCCCCCCCCCCCC/C=C/[C@@H](O)[C@H](CO)NC(=O)CCCCCCCCCCCCCC [So-64, N-[(1S,2R,3E)-2-hydroxy-1-(hydroxymethyl)-3-heptadecen-1-yl]-pentadecanamide]
  delivery of single-stranded PGY-sRNA-6 into 293T cells (fluorescence shift compared to free uptake group): deliver
  Lipid delivery group (different concentrations of lipids) 3.75 μg/mL: 7.40%
  Lipid delivery group (different concentrations of lipids) 12.5 μg/mL: 6.20%
  Lipid delivery group (different concentrations of lipids) 37.5 μg/mL: 8.70%

## CCCCCCCCCCCCCC[C@@H](O)[C@@H](N)COP(=O)(O)O [So-15, dihydro-D-erythro-Sphingosine-C17-1-phosphate]
  delivery of single-stranded PGY-sRNA-6 into 293T cells (fluorescence shift compared to free uptake group): deliver
  Lipid delivery group (different concentrations of lipids) 3.75 μg/mL: 4.70%
  Lipid delivery group (different concentrations of lipids) 12.5 μg/mL: 1.90%
  Lipid delivery group (different concentrations of lipids) 37.5 μg/mL: 2.40%

## CCCCCCCCCCCCCCC[C@@H](O)[C@H](CO)NC(=O)CCCCCCC [So-12, N-octanoyl-D-erythro-Dihydrosphingosine]
  delivery of single-stranded PGY-sRNA-6 into 293T cells (fluorescence shift compared to free uptake group): deliver
  Lipid delivery group (different concentrations of lipids) 3.75 μg/mL: 5.60%
  Lipid delivery group (different concentrations of lipids) 12.5 μg/mL: 2.30%
  Lipid delivery group (different concentrations of lipids) 37.5 μg/mL: 1.60%

## CCCCCCCCCCCCCCCCCC(=O)N[C@@H](CO)[C@H](O)[C@H](O)CCCCCCCCCCCCCC [So-69, N-[(1S,2S,3R)-2,3-dihydroxy-1-(hydroxymethyl)heptadecyl]-octadecanamide]
  delivery of single-stranded PGY-sRNA-6 into 293T cells (fluorescence shift compared to free uptake group): deliver
  Lipid delivery group (different concentrations of lipids) 3.75 μg/mL: 4.60%
  Lipid delivery group (different concentrations of lipids) 12.5 μg/mL: 3.80%
  Lipid delivery group (different concentrations of lipids) 37.5 μg/mL: 3.30%

## CCCCCCCCCCCCCCCCCC(=O)N[C@@H](CO)[C@H](O)CCCCCCCCCCCCCCC [So-9, N-octadecanoyl-D-erythro-Dihydrosphingosine]
  delivery of single-stranded PGY-sRNA-6 into 293T cells (fluorescence shift compared to free uptake group): deliver
  Lipid delivery group (different concentrations of lipids) 3.75 μg/mL: 3.30%
  Lipid delivery group (different concentrations of lipids) 12.5 μg/mL: 2.60%
  Lipid delivery group (different concentrations of lipids) 37.5 μg/mL: 2.70%
